Test results reported in patent US20180273531A1, “PYRIMIDINE COMPOUND AND MEDICAL USE THEREOF” (Japan Tobacco Inc., priority 2004, published 2018).

Key:
Format in all cases: cell-based
[1] = system: Renal cancer cell line ACHN cell; assay: Growth inhibitory effect against cancer cell lines (3H-thymidine uptake), ACHN; settings: Homo sapiens, ACHN
Method: Renal cancer cell line ACHN cell or colorectal cancer cell line HT-29 cells were cultured in a 96 well plate at 1.0×10^4 cells/90 μL/well for 24 hrs, then a test substance dissolved in DMSO (dimethyl sulfoxide) was added. After 18 hrs, ^3H-thymidine (0.25 μCi/well) was added and the cells were cultured for 6 hrs. Using a cell harvester, the cells were recovered on a UniFilter-96 GF/B glass filter and the ^3H radioactivity uptaken by the cells was measured by TopCount (Packard). As a control, DMSO was used and the activity of the test substance was expressed in the concentration (IC50) necessary for inhibiting ^3H radioactivity uptaken by the cell to 50% of that of the control group. The measurements were made in triplicate.

[2] = system: colorectal cancer cell line HT-29 cells; assay: Growth inhibitory effect against cancer cell lines (3H-thymidine uptake), HT-29; settings: Homo sapiens, HT-29, inhibition of 3H-thymidine uptake; test substance 18 hrs, then 3H-thymidine 6 hrs; triplicate
How it was run: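 IC50 = concentration reducing ^3H-thymidine incorporation to 50% of DMSO control, measured in triplicate. Compound added 24 hrs after plating (1.0×10^4 cells/well); label (0.25 μCi/well) given after 18 hrs of treatment, followed by 6 hrs further culture and scintillation counting of harvested cells.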

[3] = system: p15 protein; assay: Evaluation of p15 induction activity (Western blotting); settings: test substance 0.1 μM, 24 hrs, ACHN cells or HT-29 cells, compared to DMSO, n=2
How it was run: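 p15 protein quantified by densitometry of anti-p15 Western blots (10 μg protein per lane, mean of n=2). Samples came from HT-29 or ACHN cells given 0.1 μM compound for 24 h after 24 h plating, with DMSO as control.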

[4] = system: p27 protein; assay: p27 protein induction test (Western blotting); settings: test substance (0.1 1M), 24 hrs, ACHN cells or HT-29 cells, compared to DMSO, n=2
Method: ACHN cells or HT-29 cells were cultured in a 6 well plate at 2.5×10^5 cells/1.8 mL/well for 24 hrs, a test substance ([…]) dissolved in DMSO was added. After 24 hrs, cells were detached using trypsin-EDTA (ethylene diamine tetraacetic acid) and solubilized with NuPAGE LDS sample buffer (Invitrogen). Using an RC DC protein assay kit (BIO-RAD), the protein concentration of the sample was quantitated, and a sample in an amount corresponding to 10 μg of BSA (bovine serum albumin) was analyzed by Western blotting using an anti-p27 antibody. The density of the band stained with the anti-p27 antibody was measured by a densitometer to quantify the amount of p27 protein. As a control, DMSO was used and the test was performed with n=2 and the average protein amount was determined.

Row | SMILES | IC50 [1] | IC50 [2] | fold induction at 0.1 µM [3] | fold induction at 0.1 µM [4]
1 | Cn1c(=O)cc(Nc2ccc(Br)cc2F)c2c(=O)n(C3CC3)c(=O)n(-c3cccc(S(=O)(=O)N4CCOCC4)c3)c21 [Example 1-316] | 100 to 1000 nM | 10 to 100 nM | – | ≥ 1.5
2 | Cn1c(=O)cc(Nc2ccc(C3CC3)cc2F)c2c(=O)n(C3CC3)c(=O)n(-c3ccccc3)c21 [Example 1-265] | 100 to 1000 nM | 10 to 100 nM | ≥ 1.5 | ≥ 1.5
3 | Cc1c(=O)n(C)c(Nc2ccc(I)cc2F)c2c(=O)n(C3CC3)c(=O)n(-c3ccc(C(=O)O)cc3)c12 [Example 4-90] | 100 to 1000 nM | 10 to 100 nM | ≥ 1.5 | ≥ 1.5
4 | Cn1c(=O)cc(Nc2ccc(Br)cc2F)c2c(=O)n(C3CC3)c(=O)n(-c3cccc(N4CCOCC4=O)c3)c21 [Example 1-219] | 100 to 1000 nM | 10 to 100 nM | ≥ 1.5 | ≥ 1.5
5 | CNC(=O)Nc1cccc(-n2c(=O)n(C3CC3)c(=O)c3c(Nc4ccc(Br)cc4F)cc(=O)n(C)c32)c1 [Example 1-325] | 100 to 1000 nM | 10 to 100 nM | ≥ 1.5 | ≥ 1.5
6 | Cn1c(=O)cc(Nc2ccc(Br)cc2F)c2c(=O)n(C3CC3)c(=O)n(-c3ccccc3)c21 [Example 1-152] | 100 to 1000 nM | 10 to 100 nM | ≥ 1.5 | ≥ 1.5
7 | CC(C)C(=O)Nc1cccc(-n2c(=O)n(C3CC3)c(=O)c3c(Nc4ccc(Br)cc4F)cc(=O)n(C)c32)c1 [Example 1-287] | 100 to 1000 nM | 10 to 100 nM | ≥ 1.5 | ≥ 1.5
8 | CN1CCN(S(=O)(=O)c2cccc(-n3c(=O)n(C4CC4)c(=O)c4c(Nc5ccc(Br)cc5F)cc(=O)n(C)c43)c2)CC1 [Example 1-315] | 100 to 1000 nM | 10 to 100 nM | – | ≥ 1.5
9 | Cn1c(=O)cc(Nc2ccc(Br)cc2F)c2c(=O)n(C3CC3)c(=O)n(-c3cccc(S(=O)(=O)N4CCCCC4)c3)c21 [Example 1-317] | 100 to 1000 nM | 10 to 100 nM | ≥ 1.5 | ≥ 1.5
10 | CC(=O)Nc1ccc(-n2c(=O)n(C3CC3)c(=O)c3c(Nc4ccc(I)cc4F)n(C)c(=O)c(C)c32)cc1 [Example 4-66] | 100 to 1000 nM | 10 to 100 nM | ≥ 1.5 | ≥ 1.5
11 | CN(c1cccc(-n2c(=O)n(C3CC3)c(=O)c3c(Nc4ccc(Br)cc4F)cc(=O)n(C)c32)c1)S(C)(=O)=O [Example 1-228] | 100 to 1000 nM | 10 to 100 nM | – | ≥ 1.5
12 | CCCC(=O)Nc1cccc(-n2c(=O)n(C3CC3)c(=O)c3c(Nc4ccc(Br)cc4F)cc(=O)n(C)c32)c1 [Example 1-279] | 100 to 1000 nM | 10 to 100 nM | – | ≥ 1.5
13 | CCNC(=O)Nc1cccc(-n2c(=O)n(C3CC3)c(=O)c3c(Nc4ccc(Br)cc4F)cc(=O)n(C)c32)c1 [Example 1-307] | 100 to 1000 nM | 10 to 100 nM | – | ≥ 1.5
14 | CCCCC(=O)NCCC(=O)Nc1cccc(-n2c(=O)n(C3CC3)c(=O)c3c(Nc4ccc(Br)cc4F)cc(=O)n(C)c32)c1 [Example 1-299] | 100 to 1000 nM | 10 to 100 nM | – | ≥ 1.5
15 | C#Cc1ccc(Nc2cc(=O)n(C)c3c2c(=O)n(C2CC2)c(=O)n3-c2cccc(S(C)(=O)=O)c2)c(F)c1 [Example 1-259] | 100 to 1000 nM | < 10 nM | – | ≥ 1.5
16 | Cn1c(=O)cc(Nc2ccc(Br)cc2F)c2c(=O)n(C3CC3)c(=O)n(-c3cccc(NC(=O)CO)c3)c21 [Example 1-263] | 100 to 1000 nM | < 10 nM | – | ≥ 1.5
17 | CCS(=O)(=O)Nc1cccc(-n2c(=O)n(C3CC3)c(=O)c3c(Nc4ccc(Br)cc4F)cc(=O)n(C)c32)c1 [Example 1-262] | 10 to 100 nM | < 10 nM | – | ≥ 1.5
18 | COCCN(C)c1cccc(-n2c(=O)n(C3CC3)c(=O)c3c(Nc4ccc(Br)cc4F)cc(=O)n(C)c32)c1 [Example 1-253] | 100 to 1000 nM | 10 to 100 nM | – | ≥ 1.5
19 | CC(=O)Nc1cc(-n2c(=O)n(C3CC3)c(=O)c3c(Nc4ccc(I)cc4F)n(C)c(=O)c(C)c32)ccc1F [Example 4-99] | 100 to 1000 nM | < 10 nM | – | ≥ 1.5
20 | Cn1c(=O)cc(Nc2ccc(Br)cc2F)c2c(=O)n(C3CC3)c(=O)n(-c3cccc(NCCN4CCOCC4)c3)c21 [Example 1-303] | 100 to 1000 nM | 10 to 100 nM | – | ≥ 1.5

Further lines, with some results ahead:

Row | IC50 [1] | IC50 [2] | SMILES | fold induction at 0.1 µM [3] | fold induction at 0.1 µM [4]
21 | 10 to 100 nM | < 10 nM | Cn1c(=O)cc(Nc2ccc(Br)cc2F)c2c(=O)n(C3CC3)c(=O)n(-c3cccc(NS(C)(=O)=O)c3)c21 [Example 1-1, N-{3-[5-(4-bromo-2-fluoro-phenylamino)-3-cyclopropyl-8-methyl-2,4,7-trioxo-3,4,7,8-tetrahydro-2H-pyrido[2,3-d]pyrimidin-1-yl]phenyl}-methanesulfonamide] | ≥ 1.5 | ≥ 1.5
22 | < 10 nM | < 10 nM | C#Cc1ccc(Nc2cc(=O)n(C)c3c2c(=O)n(C2CC2)c(=O)n3-c2cccc(NS(C)(=O)=O)c2)c(F)c1 [Example 1-260] | – | ≥ 1.5
23 | 10 to 100 nM | < 10 nM | CC(=O)Nc1cccc(-n2c(=O)n(C3CC3)c(=O)c3c(Nc4ccc(I)cc4F)cc(=O)n(C)c32)c1 [Example 1-297] | ≥ 1.5 | ≥ 1.5
24 | 10 to 100 nM | < 10 nM | Cc1c(=O)n(C)c(Nc2ccc(I)cc2F)c2c(=O)n(C3CC3)c(=O)n(-c3cccc(N4CC(=O)NC4=O)c3)c12 [Example 4-109] | ≥ 1.5 | ≥ 1.5
25 | 10 to 100 nM | < 10 nM | Cc1c(=O)n(C)c(Nc2ccc(I)cc2F)c2c(=O)n(C3CC3)c(=O)n(-c3cccc(NC(=O)c4c[nH]cn4)c3)c12 [Example 4-73] | ≥ 1.5 | ≥ 1.5
26 | 10 to 100 nM | < 10 nM | CSc1ccc(Nc2cc(=O)n(C)c3c2c(=O)n(C2CC2)c(=O)n3-c2cccc(NS(C)(=O)=O)c2)c(F)c1 [Example 1-286] | ≥ 1.5 | ≥ 1.5
27 | 10 to 100 nM | < 10 nM | CSc1ccc(Nc2c3c(=O)n(C4CC4)c(=O)n(-c4cccc(NS(N)(=O)=O)c4)c3c(C)c(=O)n2C)c(F)c1 [Example 4-120] | ≥ 1.5 | ≥ 1.5
28 | 10 to 100 nM | 10 to 100 nM | CSc1ccc(Nc2cc(=O)n(C)c3c2c(=O)n(C2CC2)c(=O)n3-c2ccccc2)c(F)c1 [Example 1-285] | ≥ 1.5 | ≥ 1.5
29 | 10 to 100 nM | < 10 nM | CN(C)S(=O)(=O)Nc1cccc(-n2c(=O)n(C3CC3)c(=O)c3c(Nc4ccc(Br)cc4F)cc(=O)n(C)c32)c1 [Example 1-309] | – | ≥ 1.5
30 | 10 to 100 nM | < 10 nM | CCS(=O)(=O)Nc1cccc(-n2c(=O)n(C3CC3)c(=O)c3c(Nc4ccc(Br)cc4F)n(C)c(=O)c(C)c32)c1 [Example 3-5] | – | ≥ 1.5
31 | < 10 nM | < 10 nM | CCS(=O)(=O)Nc1cccc(-n2c(=O)n(C3CC3)c(=O)c3c(Nc4ccc(I)cc4F)cc(=O)n(C)c32)c1 [Example 1-274] | – | ≥ 1.5
32 | 10 to 100 nM | < 10 nM | CCc1ccc(Nc2cc(=O)n(C)c3c2c(=O)n(C2CC2)c(=O)n3-c2cccc(NS(C)(=O)=O)c2)c(F)c1 [Example 1-275] | – | ≥ 1.5
33 | < 10 nM | < 10 nM | CCCS(=O)(=O)Nc1cccc(-n2c(=O)n(C3CC3)c(=O)c3c(Nc4ccc(I)cc4F)cc(=O)n(C)c32)c1 [Example 1-311] | – | ≥ 1.5
34 | 10 to 100 nM | < 10 nM | C#Cc1ccc(Nc2cc(=O)n(C)c3c2c(=O)n(C2CC2)c(=O)n3-c2cccc(NC(C)=O)c2)c(F)c1 [Example 1-310] | – | ≥ 1.5
35 | 10 to 100 nM | < 10 nM | Cn1c(=O)cc(Nc2ccc(I)cc2)c2c(=O)n(C3CC3)c(=O)n(-c3cccc(NS(C)(=O)=O)c3)c21 [Example 1-302] | – | ≥ 1.5
